Experimental data published in US20200017495A1, “NOVEL HETEROCYCLIC COMPOUNDS AND THEIR USE IN PREVENTING OR TREATING BACTERIAL INFECTIONS” (priority 2017, published 2020).

What was measured:
[1] = test system: Escherichia coli (ECO) isolates; experiment: MIC of compounds alone and combined with antibacterials, broth microdilution (CLSI); type: cell-based
In short: (§1)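 Antibacterial MICs in combination were determined at every compound concentration tested, alongside compound MICs alone. Bacteria grew in cation-adjusted Mueller-Hinton broth starting from 5.10^5 CFU/mL, incubated at 35° C for 16-20 h, and endpoints were the lowest concentrations with no visible growth.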

[2] = test system: Enterobacter cloacae (ECL) isolates; experiment: as above; type: cell-based
In short: as §1

C=CC1=C(C(=O)O)N2C(=O)[C@@H](NC(=O)/C(=N\OCC(=O)O)c3csc(N)n3)[C@H]2SC1 [FIX, Cefixime] was tested, and the “MIC ATB in combination” value ([1]; strain ECO UFR179, with CLA @ 4 μg/mL) was greater than 128 mg/L, the MIC ([1]; strain ECO UFR180, genotype TEM-1, CMY-30, OXA-1, NDM-1, antibiotic alone) was greater than 128 mg/L and the “MIC ATB in combination” value ([1]; strain ECO UFR180, with AF2 @ 8 μg/mL) was less than 0.25 mg/L. For the same compound, the “MIC ATB in combination” value ([1]; strain ECO UFR180, with AF3 @ 8 μg/mL) was less than 0.25 mg/L, the “MIC ATB in combination” value ([1]; strain ECO UFR180, with CLA @ 4 μg/mL) was greater than 128 mg/L and the MIC ([1]; strain ECO UFR181, genotype TEM-1, CTX-M-15, NDM-5, antibiotic alone) was greater than 128 mg/L. For the same compound, the “MIC ATB in combination” value ([1]; strain ECO UFR181, with AF2 @ 8 μg/mL) was “<=0.25 μg/mL”, the “MIC ATB in combination” value ([1]; strain ECO UFR181, with AF3 @ 8 μg/mL) was greater than 128 mg/L and the “MIC ATB in combination” value ([1]; strain ECO UFR181, with CLA @ 4 μg/mL) was greater than 128 mg/L. For the same compound, the MIC ([1]; strain ECO UFR182, genotype CTX-M-15, OXA-1, NDM-6, antibiotic alone) was greater than 128 mg/L, the “MIC ATB in combination” value ([1]; strain ECO UFR182, with AF2 @ 8 μg/mL) was less than 0.25 mg/L and the “MIC ATB in combination” value ([1]; strain ECO UFR182, with AF3 @ 8 μg/mL) was less than 0.25 mg/L. The “MIC ATB in combination” value ([1]; strain ECO UFR182, with CLA @ 4 μg/mL) was greater than 128 mg/L, the MIC ([1]; strain ECO UFR183, genotype CTX-M-15, OXA-1, NDM-7, antibiotic alone) was greater than 128 mg/L and the “MIC ATB in combination” value ([1]; strain ECO UFR183, with AF2 @ 8 μg/mL) was greater than 128 mg/L. For the same compound, the “MIC ATB in combination” value ([1]; strain ECO UFR183, with AF3 @ 8 μg/mL) was greater than 128 mg/L, the “MIC ATB in combination” value ([1]; strain ECO UFR183, with CLA @ 4 μg/mL) was greater than 128 mg/L and the MIC ([1]; strain ECO UFR184, genotype CTX-M-15, CMY-4, OXA-1, OXA-204) was greater than 128 mg/L. For the same compound, the MIC ([1]; strain ECO UFR185, genotype OXA-48) was greater than 128 mg/L, the MIC ([1]; strain ECO UFR186, genotype TEM-1, CTX-M-14, OXA-48) was 32 mg/L and the “MIC ATB in combination” value ([1]; strain ECO UFR186, with AF2 @ 8 μg/mL) was less than 0.25 mg/L. For the same compound, the “MIC ATB in combination” value ([1]; strain ECO UFR186, with AF3 @ 8 μg/mL) was less than 0.25 mg/L, the “MIC ATB in combination” value ([1]; strain ECO UFR186, with CLA @ 4 μg/mL) was 8 mg/L and the MIC ([1]; strain ECO UFR187, genotype CTX-M-15, OXA-48) was 32 mg/L. The “MIC ATB in combination” value ([1]; strain ECO UFR187, with AF2 @ 8 μg/mL) was “<=0.25 μg/mL”, the “MIC ATB in combination” value ([1]; strain ECO UFR187, with AF3 @ 8 μg/mL) was 0.5 mg/L and the “MIC ATB in combination” value ([1]; strain ECO UFR187, with CLA @ 4 μg/mL) was 2 mg/L. For the same compound, the MIC ([1]; strain ECO UFR189, genotype TEM-1, CTX-M-15, OXA-48) was greater than 128 mg/L, the “MIC ATB in combination” value ([1]; strain ECO UFR189, with AF2 @ 8 μg/mL) was less than 0.25 mg/L and the “MIC ATB in combination” value ([1]; strain ECO UFR189, with AF3 @ 8 μg/mL) was less than 0.25 mg/L. For the same compound, the “MIC ATB in combination” value ([1]; strain ECO UFR189, with CLA @ 4 μg/mL) was 4 mg/L, the MIC ([1]; strain ECO UFR190, genotype CTX-M-24, OXA-48) was 64 mg/L and the “MIC ATB in combination” value ([1]; strain ECO UFR190, with AF2 @ 8 μg/mL) was less than 0.25 mg/L. The “MIC ATB in combination” value ([1]; strain ECO UFR190, with AF3 @ 8 μg/mL) was less than 0.25 mg/L, the “MIC ATB in combination” value ([1]; strain ECO UFR190, with CLA @ 4 μg/mL) was 8 mg/L and the MIC ([1]; strain ECO UFR191, genotype TEM-1, CTX-M-24, OXA-48) was greater than 128 mg/L. For the same compound, the “MIC ATB in combination” value ([1]; strain ECO UFR191, with AF2 @ 8 μg/mL) was less than 0.25 mg/L, the “MIC ATB in combination” value ([1]; strain ECO UFR191, with AF3 @ 8 μg/mL) was less than 0.25 mg/L and the “MIC ATB in combination” value ([1]; strain ECO UFR191, with CLA @ 4 μg/mL) was 4 mg/L. For the same compound, the MIC ([1]; strain ECO UFR204, genotype TEM-1, CMY-4, OXA-48, VIM-1, antibiotic alone) was greater than 128 mg/L, the “MIC ATB in combination” value ([1]; strain ECO UFR204, with AF2 @ 8 μg/mL) was less than 0.25 mg/L and the “MIC ATB in combination” value ([1]; strain ECO UFR204, with AF3 @ 8 μg/mL) was less than 0.25 mg/L. For the same compound, the “MIC ATB in combination” value ([1]; strain ECO UFR204, with CLA @ 4 μg/mL) was greater than 128 mg/L, the MIC ([1]; strain ECO UFR205, genotype CTX-M-15, VIM-4, antibiotic alone) was greater than 128 mg/L and the “MIC ATB in combination” value ([1]; strain ECO UFR205, with AF2 @ 8 μg/mL) was “<=0.25 μg/mL”. For the same compound, the “MIC ATB in combination” value ([1]; strain ECO UFR205, with AF3 @ 8 μg/mL) was “<=0.25 μg/mL”, the “MIC ATB in combination” value ([1]; strain ECO UFR205, with CLA @ 4 μg/mL) was greater than 128 mg/L and the MIC ([1]; strain ECO UFR206, genotype TEM-1, CTX-M-15, OXA-1, VIM-4, antibiotic alone) was greater than 128 mg/L. For the same compound, the “MIC ATB in combination” value ([1]; strain ECO UFR206, with AF2 @ 8 μg/mL) was greater than 128 mg/L, the “MIC ATB in combination” value ([1]; strain ECO UFR206, with AF3 @ 8 μg/mL) was greater than 128 mg/L and the “MIC ATB in combination” value ([1]; strain ECO UFR206, with CLA @ 4 μg/mL) was greater than 128 mg/L. It also gave an MIC ([1]; strain ECO UFR207, genotype CTX-M-15) greater than 128 mg/L, an MIC ([1]; strain ECO UFR208, genotype SHV-12) greater than 128 mg/L and an MIC ([1]; strain ECO UFR209, compound alone) of 1024 mg/L. For the same compound, the MIC ([1]; strain ECO UFR209, genotype TEM-1, CTX-M-15) was 1024 mg/L, the MIC ([1]; strain ECO UFR210, genotype SHV-12) was 32 mg/L and the MIC ([1]; strain ECO UFR211, genotype TEM-24) was greater than 128 mg/L. The MIC ([1]; strain ECO UFR212, genotype CMY-2) was greater than 128 mg/L, the MIC ([1]; strain ECO UFR218, genotype TEM-1, SHV-1, CTX-M-15) was greater than 128 mg/L and the MIC ([1]; strain ECO UFR252GO, genotype VIM-2, antibiotic alone) was greater than 128 mg/L. For the same compound, the “MIC ATB in combination” value ([1]; strain ECO UFR252GO, with AF2 @ 8 μg/mL) was less than 0.25 mg/L, the “MIC ATB in combination” value ([1]; strain ECO UFR252GO, with AF3 @ 8 μg/mL) was less than 0.25 mg/L and the “MIC ATB in combination” value ([1]; strain ECO UFR252GO, with CLA @ 4 μg/mL) was greater than 128 mg/L. The MIC ([1]; strain ECO UFR255, genotype NDM-1, antibiotic alone) was greater than 128 mg/L, the “MIC ATB in combination” value ([1]; strain ECO UFR255, with AF2 @ 8 μg/mL) was less than 0.25 mg/L and the “MIC ATB in combination” value ([1]; strain ECO UFR255, with AF3 @ 8 μg/mL) was less than 0.25 mg/L. For the same compound, the “MIC ATB in combination” value ([1]; strain ECO UFR255, with CLA @ 4 μg/mL) was greater than 128 mg/L, the “MIC ATB in combination” value ([2]; ECL 2185D, AF2 @ 8 μg/mL) was greater than 128 mg/L and the “MIC ATB in combination” value ([2]; ECL 2185D, AF3 @ 8 μg/mL) was greater than 128 mg/L. For the same compound, the “MIC ATB in combination” value ([2]; ECL 2185D, CLA @ 4 μg/mL) was greater than 128 mg/L, the “MIC ATB in combination” value ([2]; ECL 190310, AF2 @ 8 μg/mL) was greater than 128 mg/L and the “MIC ATB in combination” value ([2]; ECL 190310, AF3 @ 8 μg/mL) was 64 mg/L. For the same compound, the “MIC ATB in combination” value ([2]; ECL 190310, CLA @ 4 μg/mL) was greater than 128 mg/L, the “MIC ATB in combination” value ([2]; ECL 190408, AF2 @ 8 μg/mL) was less than 0.25 mg/L and the “MIC ATB in combination” value ([2]; ECL 190408, AF3 @ 8 μg/mL) was less than 0.25 mg/L. The “MIC ATB in combination” value ([2]; ECL 190408, CLA @ 4 μg/mL) was 128 mg/L, the “MIC ATB in combination” value ([2]; ECL 200138, AF2 @ 8 μg/mL) was greater than 128 mg/L and the “MIC ATB in combination” value ([2]; ECL 200138, AF3 @ 8 μg/mL) was greater than 128 mg/L. The “MIC ATB in combination” value ([2]; ECL 200138, CLA @ 4 μg/mL) was greater than 128 mg/L, the “MIC ATB in combination” value ([2]; ECL 200322, AF2 @ 8 μg/mL) was “<=0.25 μg/mL” and the “MIC ATB in combination” value ([2]; ECL 200322, AF3 @ 8 μg/mL) was less than 0.25 mg/L. The “MIC ATB in combination” value ([2]; ECL 200322, CLA @ 4 μg/mL) was 64 mg/L, the “MIC ATB in combination” value ([2]; ECL 260033, AF2 @ 8 μg/mL) was greater than 128 mg/L and the “MIC ATB in combination” value ([2]; ECL 260033, AF3 @ 8 μg/mL) was greater than 128 mg/L. The “MIC ATB in combination” value ([2]; ECL 260033, CLA @ 4 μg/mL) was greater than 128 mg/L, the “MIC ATB in combination” value ([2]; ECL 260253, AF2 @ 8 μg/mL) was less than 0.25 mg/L and the “MIC ATB in combination” value ([2]; ECL 260253, AF3 @ 8 μg/mL) was “<=0.25 μg/mL”. For the same compound, the “MIC ATB in combination” value ([2]; ECL 260253, CLA @ 4 μg/mL) was 64 mg/L, the “MIC ATB in combination” value ([2]; ECL 260323, AF2 @ 8 μg/mL) was less than 0.25 mg/L and the “MIC ATB in combination” value ([2]; ECL 260323, AF3 @ 8 μg/mL) was less than 0.25 mg/L. The “MIC ATB in combination” value ([2]; ECL 260323, CLA @ 4 μg/mL) was greater than 128 mg/L, the “MIC ATB in combination” value ([2]; ECL 260508, AF2 @ 8 μg/mL) was less than 0.25 mg/L and the “MIC ATB in combination” value ([2]; ECL 260508, AF3 @ 8 μg/mL) was “<=0.25 μg/mL”. The “MIC ATB in combination” value ([2]; ECL 260508, CLA @ 4 μg/mL) was 32 mg/L, the “MIC ATB in combination” value ([2]; ECL HAN, AF2 @ 8 μg/mL) was greater than 128 mg/L and the “MIC ATB in combination” value ([2]; ECL HAN, AF3 @ 8 μg/mL) was greater than 128 mg/L. For the same compound, the “MIC ATB in combination” value ([2]; ECL HAN, CLA @ 4 μg/mL) was greater than 128 mg/L.
